The source of these data is ChEMBL document CHEMBL4052581, “Expanding the Cancer Arsenal with Targeted Therapies: Disarmament of the Antiapoptotic Bcl-2 Proteins by Small Molecules” (J Med Chem, 2017).

In experiment [1] the target is T1, Apoptosis regulator Bcl-2 (Homo sapiens, UniProt P10415). Nature of the experiment: Inhibition of FAM-Bid binding to Bcl-2 (unknown origin) after 30 mins by fluorescence polarization assay. (Fluorescence polarisation rises when a labelled molecule tumbles more slowly, as on binding a larger partner.)
T1 sequence (P10415 whole entry): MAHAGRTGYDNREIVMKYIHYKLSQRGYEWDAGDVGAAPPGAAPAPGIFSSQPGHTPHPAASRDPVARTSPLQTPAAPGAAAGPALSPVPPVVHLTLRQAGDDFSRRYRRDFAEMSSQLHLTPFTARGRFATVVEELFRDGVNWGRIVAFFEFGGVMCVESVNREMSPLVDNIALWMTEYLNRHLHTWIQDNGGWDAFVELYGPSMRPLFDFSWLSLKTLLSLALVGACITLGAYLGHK
Experiment [2] addresses T2, Induced myeloid leukemia cell differentiation protein Mcl-1 (Homo sapiens, UniProt Q07820). Nature of the experiment: Inhibition of FAM-Bid binding to Mcl-1 (unknown origin) after 30 mins by fluorescence polarization assay.
The target in experiment [3] is T3, Bcl-2-related protein A1 (Homo sapiens, UniProt Q16548).
T3 sequence (Q16548 whole entry): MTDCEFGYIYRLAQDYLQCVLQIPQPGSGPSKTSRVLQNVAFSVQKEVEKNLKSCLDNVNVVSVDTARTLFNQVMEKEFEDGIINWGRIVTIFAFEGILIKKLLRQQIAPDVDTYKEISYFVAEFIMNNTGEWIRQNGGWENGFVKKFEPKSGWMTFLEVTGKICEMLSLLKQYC
Briefly: Binding affinity to Bcl2A1 (unknown origin).

For experiment [4], the target named is T4, Bcl-2-like protein 1 (Homo sapiens, UniProt Q07817). Briefly: Inhibition of Bak BH3 peptide binding to GST-tagged human Bcl-xL after 3 hrs by Western blotting-based GST pull-down assay. (In western blotting, separated proteins are transferred to a membrane and probed.)
T4 sequence (Q07817 whole entry): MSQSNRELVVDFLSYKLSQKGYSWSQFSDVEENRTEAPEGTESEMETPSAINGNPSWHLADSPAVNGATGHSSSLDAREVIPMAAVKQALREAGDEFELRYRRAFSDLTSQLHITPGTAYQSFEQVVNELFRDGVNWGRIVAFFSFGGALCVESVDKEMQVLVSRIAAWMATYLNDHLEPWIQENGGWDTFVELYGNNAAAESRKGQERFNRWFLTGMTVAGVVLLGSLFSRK
The target in experiment [5] is T2, Induced myeloid leukemia cell differentiation protein Mcl-1. Nature of the experiment: Inhibition of Bim BH3 peptide binding to GST-tagged human Mcl-1 after 3 hrs by Western blotting-based GST pull-down assay.
For experiment [6] the target is unchanged. Nature of the experiment: Inhibition of FITC-labeled Bim BH3 binding to GST-tagged Mcl-1 (unknown origin) preincubated for 2 mins followed by FITC-Bim-BH3 addition measured after 10 mins by fluorescence polarization assay.
Experiment [7] addresses T1, Apoptosis regulator Bcl-2. Nature of the experiment: Inhibition of Bcl-2 (unknown origin) by fluorescence polarization assay.
Experiment [8] has as its target T4, Bcl-2-like protein 1. Briefly: Inhibition of Bcl-xL (unknown origin) by fluorescence polarization assay.
The species entered for experiment [9] is Homo sapiens. Nature of the experiment: Selectivity ratio of compound effect for Bcl-2 (unknown origin) to compound effect for Mcl-1 (unknown origin).
For experiment [10], the species on record is Homo sapiens. Briefly: Selectivity ratio of compound effect for Bcl-xL (unknown origin) to compound effect for Mcl-1 (unknown origin).
Experiment [11] has as its target T2, Induced myeloid leukemia cell differentiation protein Mcl-1. Nature of the experiment: Inhibition of FITC-BID BH3 peptide binding to recombinant GST-tagged N-terminal/C-terminal truncated Mcl-1 (unknown origin) expressed in Escherichia coli BL21 (DE3) after 5 mins by fluorescence polarization assay.
Experiment [12] deals with T4, Bcl-2-like protein 1. Nature of the experiment: Inhibition of FITC-BID BH3 peptide binding to recombinant GST-tagged C-terminal truncated Bcl-xL (unknown origin) expressed in Escherichia coli BL21 (DE3) after 5 mins by fluorescence polarization assay.
A short description of experiment [13]: Selectivity ratio of IC50 for human Bcl-2 to IC50 for mouse Mcl-1.
Experiment [14] addresses T2, Induced myeloid leukemia cell differentiation protein Mcl-1. Briefly: Binding affinity to Mcl-1 (unknown origin) by TR-FRET assay.
The target of experiment [15] is T4, Bcl-2-like protein 1. Nature of the experiment: Inhibition of FITC-labeled Bak-BH3 peptide binding to Bcl-xL (unknown origin) by fluorescence polarization assay.
Experiment [16] has as its target T2, Induced myeloid leukemia cell differentiation protein Mcl-1. Briefly: Inhibition of FITC-labeled Bak-BH3 peptide binding to Mcl-1 (unknown origin) by fluorescence polarization assay.

Structures are written as SMILES.

T2 sequence (Q07820 whole entry): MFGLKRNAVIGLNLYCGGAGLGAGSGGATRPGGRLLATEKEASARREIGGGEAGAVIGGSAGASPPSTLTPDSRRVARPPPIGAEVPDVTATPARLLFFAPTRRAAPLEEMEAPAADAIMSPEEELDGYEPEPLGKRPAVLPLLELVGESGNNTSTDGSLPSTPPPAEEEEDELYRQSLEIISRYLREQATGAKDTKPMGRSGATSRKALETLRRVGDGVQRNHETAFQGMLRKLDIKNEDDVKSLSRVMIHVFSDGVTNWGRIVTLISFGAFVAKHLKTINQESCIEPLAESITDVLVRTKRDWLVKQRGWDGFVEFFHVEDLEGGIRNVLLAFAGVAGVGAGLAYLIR

A word on the Kd: it is a measure of binding affinity in units of concentration. A lower Kd goes with higher affinity. On to `N#CC1=C2C(=NC1=O)c1cccc3c(N4CCSCC4)ccc2c13`, for which the Kd in [1] came out at 310 nM; in experiment [2] it was 58 nM.
The term Ki denotes a measure of affinity in units of concentration, obtained from inhibition or displacement. Read a high Ki as lower affinity. `CN(C)CC[C@H](CSc1ccccc1)Nc1ccc(S(=O)(=O)NC(=O)c2ccc(N3CCN(Cc4ccccc4-c4ccc(Cl)cc4)CC3)cc2)cc1[N+](=O)[O-]` [ABT 737] yielded a Ki in experiment [3] of over 20000 nM.
The IC50 is the concentration that gives 50% inhibition. In the case of `CC(C)Cc1cc(-c2ccc(-c3ccc(CCC(=O)O)cc3CC(C)C)cc2Cc2ccccc2)ccc1OCC(=O)O`, the results for the half-maximal inhibitory concentration (IC50) in [4] and in experiment [5] were 1500 nM and 4900 nM, respectively.
Take `CC1=C(C2=C(C)C(=O)c3c(cc(O)c(O)c3Cc3ccccc3)C2=O)C(=O)c2cc(O)c(O)c(Cc3ccccc3)c2C1=O`: in [6], the IC50 is 25 nM.
Regarding `Cc1c(S(C)(=O)=O)c(-c2cc(F)cc(N3CCN(c4ccc(NS(=O)(=O)c5ccc(N[C@H](CCN6CCC(O)CC6)CSc6ccccc6)c(S(=O)(=O)C(F)(F)F)c5)cc4)CC3)c2)c(-c2ccc(Cl)cc2)n1C(C)C`, the Ki in experiment [7] and in [8] was under 1 nM in each case. Further, the Selectivity ratio in experiment [9] and in experiment [10] was over 1000 throughout.
Turning to `Cc1cs/c(=N\C2CCCCC2)n1/N=C/c1cc(O)c(O)c(O)c1`, the IC50 in [11] is 4800 nM; in experiment [12], over 50000 nM.
`O=C(c1ccccc1O)c1[nH]c(Cl)c(Cl)c1-n1c(C(=O)c2ccccc2O)cc(Cl)c1Cl`: the Ratio IC50 in experiment [13] is over 8.
The molecule `CC1(C)CCC(CN2CCN(c3ccc(C(=O)NS(=O)(=O)c4ccc(NCC5CCOCC5)c([N+](=O)[O-])c4)c(Oc4cnc5[nH]ccc5c4)c3)CC2)=C(c2ccc(Cl)cc2)C1` [VENETOCLAX] displayed a Ki in experiment [14] of over 444 nM.
Regarding `CC(C)Oc1cc(C(=O)Nc2ccc(C(=O)Nc3ccc(C(=O)O)cc3OC(C)C)nc2OC(C)C)ccc1N`, the IC50 in [15] was found to be 394 nM; in experiment [16], 10000 nM.
